From ChEMBL document CHEMBL3286191, “Exploring structural motifs necessary for substrate binding in the active site of Escherichia coli pantothenate kinase” (Bioorg Med Chem, 2014)
Calls of active or inactive are those of the source. No cut-off for these calls is given here.

Tests used:
Escherichia coli [1] = assay: Ratio of kcat to Km for purified Escherichia coli pantothenate kinase by spectrophotometry
Escherichia coli [2] = assay: Activity of purified Escherichia coli pantothenate kinase by spectrophotometry
Escherichia coli [3] = assay: Inhibition of purified Escherichia coli pantothenate kinase using pantothenate as substrate at 0.625 to 20 mM by spectrophotometry
Escherichia coli [4] = assay: Activity of purified Escherichia coli pantothenate kinase up to 1 uM by spectrophotometry

| Compound | kcat/Km (Escherichia coli [1]) [M⁻¹ s⁻¹] | Km (Escherichia coli [2]) [µM] | kcat (Escherichia coli [2]) [s⁻¹] | inhibition (Escherichia coli [3]) | Activity (Escherichia coli [4]) |
| --- | --- | --- | --- | --- | --- |
| CC(C)(CO)[C@@H](O)C(=O)NCCC(=O)NCc1cccnc1 | 38000 | 33 | 1.24 | – | – |
| CC(C)(CO)[C@@H](O)C(=O)NCCC(=O)Nc1ccccc1 | 24000 | 43 | 1.02 | – | – |
| CC(C)(CO)[C@@H](O)C(=O)NCCC(=O)N1Cc2ccccc2C1 | 1900 | 200 | 0.45 | – | – |
| CC(C)(CO)[C@@H](O)C(=O)NCCC(=O)Nc1cc(Cl)ccc1Oc1ccc(Cl)cc1Cl | – | – | – | inactive | inactive |
| CC(C)(CO)[C@@H](O)C(=O)NCCCNC(=N)Nc1ccc(Cl)cc1 | – | – | – | inactive | inactive |
| CC(C)(CO)[C@@H](O)C(=O)NCCC(=O)NCCCn1ccnc1 | 21000 | 22 | 0.46 | – | – |
| CC(C)(CO)[C@@H](O)C(=O)NCCC(=O)Nc1ccncn1 | 3200 | 450 | 1.44 | – | – |
| CC(C)(CO)[C@@H](O)C(=O)NCCC(=O)N1CCc2ccccc21 | 400 | 400 | 0.18 | – | – |
| CC(C)(CO)[C@@H](O)C(=O)NCCS(=O)(=O)O | – | – | – | inactive | inactive |
| CC(C)(CO)[C@@H](O)C(=O)NCCC(=O)NCc1ccccn1 | 20000 | 50 | 1.02 | – | – |
| CC(C)(CO)[C@@H](O)C(=O)NCCC(=O)NCc1ccncc1 | 7000 | 130 | 0.94 | – | – |
| CCCCCn1cc(CNC(=O)[C@H](O)C(C)(C)CO)nn1 | 5100 | 190 | 0.96 | – | – |
| CC(C)(CO)[C@@H](O)C(=O)NCCCOc1cc(Cl)ccc1Oc1ccc(Cl)cc1Cl | – | – | – | inactive | inactive |
| CC(C)(CO)[C@@H](O)C(=O)NCCC(=O)NCc1ccccc1 | 17000 | 67 | 1.15 | – | – |
| CCCc1cn(CCCNC(=O)[C@H](O)C(C)(C)CO)nn1 | 500 | 1000 | 0.49 | – | – |
| CC(C)(CO)[C@@H](O)C(=O)NCCC(=O)NCC1CCNCC1 | 500 | > 1000 | 1.19 | – | – |
| CCCCCNC(CNC(=O)[C@H](O)C(C)(C)CO)C(=O)O (some centres not stated) | 300 | 700 | 0.23 | – | – |
| Cc1cccnc1NC(=O)CCNC(=O)[C@H](O)C(C)(C)CO | 20000 | 39 | 0.78 | – | – |

Next, values leading:

| kcat/Km (Escherichia coli [1]) [M⁻¹ s⁻¹] | Km (Escherichia coli [2]) [µM] | kcat (Escherichia coli [2]) [s⁻¹] | inhibition (Escherichia coli [3]) | Activity (Escherichia coli [4]) | Compound |
| --- | --- | --- | --- | --- | --- |
| 200 | 1200 | 0.28 | – | – | CCCCCNC(=O)CCNC(=O)[C@H](O)C(CC)(CC)CO |
| 9000 | 110 | 1.04 | – | – | C#CC[C@](C)(CO)[C@@H](O)C(=O)NCCC(=O)NCCCCC |
| 100 | 1200 | 0.13 | – | – | CCCCCNC(=O)CNCCCNC(=O)[C@H](O)C(C)(C)CO |
| – | – | – | inactive | inactive | CN(C)CCCNC(=O)CCNC(=O)[C@H](O)C(C)(C)CO |
| 300 | > 1000 | 0.75 | – | – | CC(C)(CO)[C@@H](O)C(=O)NCCC(=O)NCCN1CCNCC1 |
| 10000 | 120 | 1.12 | – | – | CCCCCNC(=O)CNC(=O)CCNC(=O)[C@H](O)C(C)(C)CO |
| 17000 | 60 | 1.03 | – | – | CC(C)(CO)[C@@H](O)C(=O)NCCC(=O)NCCS |
| 1500 | 590 | 0.89 | – | – | C=CC[C@](C)(CO)[C@@H](O)C(=O)NCCC(=O)NCCCCC |
| 11000 | 110 | 1.15 | – | – | CC(C)(CO)[C@@H](O)C(=O)NCCC(=O)NCCc1ccccn1 |
| – | – | – | inactive | inactive | CN(C)CCCNCCCNC(=O)CCNC(=O)[C@H](O)C(C)(C)CO |
| 5100 | 230 | 1.17 | – | – | CCCCCNC(=O)CCNC(=O)[C@H](O)[C@](C)(CC)CO |
| 2900 | 350 | 1.03 | – | – | CC(C)(CO)[C@@H](O)C(=O)NCCC(=O)NCCCN1CCOCC1 |
| 35000 | 32 | 1.13 | – | – | CC(C)(CO)[C@@H](O)C(=O)NCCC(=O)NCCCc1ccccc1 |
| – | – | – | inactive | inactive | CC(C)(CO)[C@@H](O)C(=O)NCCNC(=N)N |
| – | – | – | inactive | inactive | C=CCC[C@](C)(CO)[C@@H](O)C(=O)NCCC(=O)NCCCCC |
| 4500 | 240 | 1.09 | – | – | CCCC(=O)NCCNC(=O)CCNC(=O)[C@H](O)C(C)(C)CO |
| 26000 | 36 | 0.93 | – | – | CCCCCNC(=O)CCNC(=O)[C@H](O)C(C)(C)CO |
| 50000 | 21 | 1.07 | – | – | CC(C)(CO)[C@@H](O)C(=O)NCCC(=O)O |
| – | – | – | inactive | inactive | CCCCCNC(=O)CCNC(=O)[C@H](O)[C@@](C)(CO)CCCO |
